Test results reported in US20240368667A1, “RAPID, LABEL-FREE ANTIBIOTIC SUSCEPTIBILITY OF BACTERIA DIRECTLY FROM POSITIVE BLOOD OR BODILY FLUID/CULTURE” (priority 2021, published 2024).

Tests used:
[1] = tested on: P. aeruginosa 77; experiment: Microbroth dilution MIC with and without sucrose recovery; assay type: cell-based, Pseudomonas aeruginosa; settings: MIC given as multiple of S/I/R; for minimum inhibitory concentration (MIC), Standard: P. aeruginosa 77 recovered by standard plating; for minimum inhibitory concentration (MIC), Sucrose: P. aeruginosa 77 recovered through sucrose (Method 2)
Experimental: (§1) Microbroth dilution for minimum inhibitory concentrations (MIC) with and without sucrose recovery. To isolate bacteria without sucrose, culture media from positive BacT/alert FA PLUS aerobic culture bottles (bioMérieux, Durham, NC) was serially diluted and plated onto LB agar (Lennox; Sigma-Aldrich, St. Louis, MO). Bacterial suspensions were prepared by resuspending colonies in CAMHB with incubation on a MaxQ 4000 incubator shaker (Thermo Fisher Scientific, Waltham, MA) at 37° C. and ˜225 rpm for 3 hours. Bacteria recovered via Method 2 were diluted 10-fold in CAMHB. Following incubation or sucrose recovery and dilution, bacterial suspensions were adjusted to ˜0.004 OD600 with CAMHB and a 50-μL aliquot distributed to each well of a 96-well plate containing CAMHB with and without clinically relevant antibiotics (2-fold dilution series). Gram-negative plates included: ceftazidime (3rd generation cephalosporin, RPI corp., Mount Prospect, IL), cefepime (4th generation cephalosporin, Chem-Impex Int'l, Wood Dale, IL), meropenem (carbapenem, Tokyo Chemical Industry, Tokyo, Japan), levofloxacin (quinolone, Alfa Aesar, Haverhill, MA), and tobramycin (aminoglycoside, MP Biomedicals LLC, Santa Ana, CA), while S. aureus plates contained: oxacillin (beta-lactam, Sigma-Aldrich, St. Louis, MO), vancomycin (glycopeptide, Santa Cruz Biotechnology, Dallas, TX), erythromycin (macrolide, Sigma-Aldrich, St. Louis, MO), clindamycin ([…]), and ciprofloxacin (fluoroquinolone, Sigma-Aldrich, St. Louis, MO). Antibiotic plates were incubated at 37° C. for 16-20 hours (gram-negative) or 35° C. for 24 hours (S. aureus), at which time, plates were removed from the incubator and visually inspected for bacterial growth. The MIC was set at the lowest antibiotic concentration at which no growth was detected.
(§2) Influence of Sucrose on Bacterial MIC. To rule out the potential effect of sucrose exposure in bacterial antibiotic susceptibility, microbroth dilution studies were performed on bacteria recovered using standard practices (i.e. plating following positive blood culture) and through selective lysis coupled with centrifugation through the sucrose cushion (Method 2).

[2] = tested on: E. coli 79; experiment: as above; assay type: cell-based, Escherichia coli; settings: MIC given as multiple of S/I/R
Experimental: as §1, §2

minimum inhibitory concentration (MIC), Standard [1] | minimum inhibitory concentration (MIC), Sucrose [1] | minimum inhibitory concentration (MIC), Standard ([2]; E. coli 79 recovered by standard plating) | minimum inhibitory concentration (MIC), Sucrose ([2]; E. coli 79 recovered through sucrose (Method 2)) | Structure (SMILES)
½S | ¼S | – | – | CC(C)(O/N=C(\C(=O)N[C@@H]1C(=O)N2C(C(=O)[O-])=C(C[n+]3ccccc3)CS[C@H]12)c1csc(N)n1)C(=O)O [Ceftazidime, ceftazidime]
⅛S | – | – | – | C[C@@H](O)[C@H]1C(=O)N2C(C(=O)O)=C(S[C@@H]3CN[C@H](C(=O)N(C)C)C3)[C@H](C)[C@H]12 [Meropenem, meropenem]
⅛S | ⅛S | ¼S | ¼S | NC[C@H]1O[C@H](O[C@H]2[C@H](O)[C@@H](O[C@H]3O[C@H](CO)[C@@H](O)[C@H](N)[C@H]3O)[C@H](N)C[C@@H]2N)[C@H](N)C[C@@H]1O [Tobramycin, tobramycin]
